Inhibition in vivo and activity relative to indomethacin data for eight compounds are collected here from ChEMBL document CHEMBL1152855, “Regioselective synthesis of dispiro[1H-indene-2,3'-pyrrolidine-2',3''-[3H]indole]-1,2''(1''H)-diones of potential anti-tumor properties” (2009).

SMILES strings stand for the structures.

Holding throughout (format): functional
What all share (details): route intraperitoneal

Experiment [1] relates to Rattus norvegicus. The experiment in a line: Antiinflammatory activity against carrageenan-induced paw edema in Wister albino rat assessed as inhibition of edema at 50 mg/kg, ip administered 1 hr prior to carrageenan challenge measured after 2 hrs relative to control. A general note: The carrageenan paw model is a standard test of acute inflammation.
Experiment [2] concerns Rattus norvegicus. The experiment in a line: Antiinflammatory activity against carrageenan-induced paw edema in Wister albino rat assessed as inhibition of edema at 50 mg/kg, ip administered 1 hr prior to carrageenan challenge measured after 4 hrs relative to indomethacin.
Experiment [3] relates to Rattus norvegicus. The experiment in a line: Antiinflammatory activity against carrageenan-induced paw edema in Wister albino rat assessed as inhibition of edema at 50 mg/kg, ip administered 1 hr prior to carrageenan challenge measured after 4 hrs relative to control.
The subject of experiment [4] is Rattus norvegicus. The experiment is described as follows: Antiinflammatory activity against carrageenan-induced paw edema in Wister albino rat assessed as inhibition of edema at 50 mg/kg, ip administered 1 hr prior to carrageenan challenge measured after 3 hrs relative to control.
Experiment [5] has as its system Rattus norvegicus. The experiment is described as follows: Antiinflammatory activity against carrageenan-induced paw edema in Wister albino rat assessed as inhibition of edema at 50 mg/kg, ip administered 1 hr prior to carrageenan challenge measured after 1 hr relative to control.
Experiment [6] concerns Rattus norvegicus. The experiment is described as follows: Antiinflammatory activity against carrageenan-induced paw edema in Wister albino rat assessed as inhibition of edema at 10 mg/kg, ip administered 1 hr prior to carrageenan challenge measured after 3 hrs relative to control.
In experiment [7] the test system is Rattus norvegicus. The experiment is described as follows: Antiinflammatory activity against carrageenan-induced paw edema in Wister albino rat assessed as inhibition of edema at 10 mg/kg, ip administered 1 hr prior to carrageenan challenge measured after 2 hrs relative to control.
Experiment [8] relates to Rattus norvegicus. The experiment is described as follows: Antiinflammatory activity against carrageenan-induced paw edema in Wister albino rat assessed as inhibition of edema at 10 mg/kg, ip administered 1 hr prior to carrageenan challenge measured after 4 hrs relative to control.
For experiment [9], the system named is Rattus norvegicus. The experiment is described as follows: Antiinflammatory activity against carrageenan-induced paw edema in Wister albino rat assessed as inhibition of edema at 10 mg/kg, ip administered 1 hr prior to carrageenan challenge measured after 1 hr relative to control.

By inhibition in vivo is commonly meant the relative decrease from the control value, in per cent. Take `[3H]N1C(=O)[C@@]2(c3ccccc31)N(C)C[C@@H](c1ccccc1)[C@@]21Cc2ccccc2C1=O`: the inhibition in vivo at 50 mg/kg turned out to be 40% with Rattus norvegicus [1], 39.3% with Rattus norvegicus [3], 42.5% with Rattus norvegicus [4] and 56% in the experiment with Rattus norvegicus [5]. Also, in the experiment on Rattus norvegicus [2], the activity relative to indomethacin was determined as 81%.
Take `[3H]N1C(=O)[C@@]2(c3ccccc31)N(C)C[C@@H](c1ccco1)[C@@]21Cc2ccccc2C1=O`: the inhibition in vivo at 50 mg/kg in the experiment with Rattus norvegicus [1] turned out to be 53.6%; in the experiment with Rattus norvegicus [3], 33.5%; with Rattus norvegicus [4], 38.8%; in the experiment with Rattus norvegicus [5] it was 48.8%. The activity relative to indomethacin in the experiment on Rattus norvegicus [2] came out at 69%.
Take `[3H]C([3H])([3H])N1C(=O)[C@@]2(c3ccccc31)N(C)C[C@@H](c1ccc(F)cc1)[C@@]21Cc2ccccc2C1=O`: the inhibition in vivo at 50 mg/kg was 24.6% with Rattus norvegicus [1], 25.5% with Rattus norvegicus [3], 26.9% in the experiment on Rattus norvegicus [4] and 52.9% in the experiment with Rattus norvegicus [5]. Further, the activity relative to indomethacin in the experiment on Rattus norvegicus [2] worked out at 53%.
As for `[3H]N1C(=O)[C@@]2(c3ccccc31)N(C)C[C@@H](c1ccc(F)cc1)[C@@]21Cc2ccccc2C1=O`, the inhibition in vivo at 50 mg/kg in the experiment on Rattus norvegicus [1] was 21.2%; in the experiment on Rattus norvegicus [3] it was 21.8%; in the experiment with Rattus norvegicus [4], 21.1%; in the experiment with Rattus norvegicus [5], 40.6%. In addition, the activity relative to indomethacin in the experiment with Rattus norvegicus [2] was 45%.
The corresponding values for `[3H]C([3H])([3H])N1C(=O)[C@@]2(c3ccccc31)N(C)C[C@@H](c1ccco1)[C@@]21Cc2ccccc2C1=O` are 33.1%, 8.2%, 17.5%, 50.1% and 17%.
On to `[3H]C([3H])([3H])N1C(=O)[C@@]2(c3ccccc31)N(C)C[C@@H](c1ccc(C)cc1)[C@@]21Cc2ccccc2C1=O`, for which the inhibition in vivo at 50 mg/kg in the experiment with Rattus norvegicus [1] turned out to be 8%; in the experiment with Rattus norvegicus [3], 13.9%; with Rattus norvegicus [4], 6.4%; in the experiment on Rattus norvegicus [5], 46.9%. Further, the activity relative to indomethacin with Rattus norvegicus [2] came to 29%.
In the case of `[3H]N1C(=O)[C@@]2(c3ccccc31)N(C)C[C@@H](c1ccc(C)cc1)[C@@]21Cc2ccccc2C1=O`, the inhibition in vivo at 50 mg/kg was 23.8% with Rattus norvegicus [1], 17.1% in the experiment with Rattus norvegicus [3], 27.4% in the experiment on Rattus norvegicus [4] and 56.4% with Rattus norvegicus [5]. Further, the activity relative to indomethacin in the experiment with Rattus norvegicus [2] came to 35%.
As for `COc1ccc2c(c1)c(CC(=O)O)c(C)n2C(=O)c1ccc(Cl)cc1` [INDOMETHACIN], the inhibition in vivo at 10 mg/kg in the experiment on Rattus norvegicus [6] was found to be 48.3%; with Rattus norvegicus [7], 45.6%; in the experiment with Rattus norvegicus [8], 48.5%; with Rattus norvegicus [9] it was 51%.
